Where a name gives a salt, the structure may show the parent alone. Read-outs that look alike come from different tables or passages of the source.
Test system: human primary T-cells, IL-2 stimulated proliferation (JAK-1 and JAK-3 dependent; reported as JAK3 activity)
Test: Human primary T-cell proliferation stimulated by IL-2 (Example 3)
Assay type: cell-based
Settings: tested under conditions described in Example 3 (IL-2 stimulated human primary T-cell proliferation), read-out: ability to inhibit JAK3 activity, IC50 range (Table V)
Outline: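 Peripheral-blood human T-cells pre-activated via TCR/CD28, IL-2-starved overnight, then cultured 72 h at 37 °C with compound in Yssel's medium containing IL-2 (80 U/mL in cell suspension). Proliferation read as viable-cell ATP by CellTiter-Glo luminescence; reduction versus control taken as JAK pathway inhibition.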

| SMILES | IC50 (Homo sapiens, T-cell) [nM] | IC50 [nM] |
| --- | --- | --- |
| Cc1cnc(Nc2ccc(F)c(OC(F)(F)F)c2)nc1Nc1ccc2oc(=O)[nH]c2c1 [Compound I-163, 5-[2-(4-Fluoro-3-trifluoromethoxy-phenylamino)-5-methyl-pyrimidin-4-ylamino]-3H-benzooxazol-2-one] | < 500 |  |
| Cc1cnc(Nc2ccc(N3CCC(F)(F)CC3)c(C(F)(F)F)c2)nc1Nc1ccc2oc(=O)[nH]c2c1 [Compound I-276, N2-[4-(4,4-difluoropiperidinyl)-3-trifluoromethyl]phenyl-5-methyl-N4-(2-oxo-2,3-dihydro-1,3-benzoxazol-5-yl)-2,4-pyrimidinediamine] |  | < 500 |
| Cc1cnc(Nc2ccc(N3C[C@H]4C[C@@H]3CN4C)nc2)nc1Nc1ccc2oc(=O)[nH]c2c1 [II-2, N4-(benzo[d]oxazol-2(3H)-on-5-yl)-N2-(6-((1R,4R)-5-methyl-2,5-diazabicyclo[2.2.1]heptan-2-yl)-pyridin-3-yl)-5-methylpyrimidine-2,4-diamine] | < 500 |  |
| Cc1cnc(Nc2cc(C)c(Cl)c(C)c2)nc1Nc1ccc2oc(=O)[nH]c2c1 [Compound I-394, N2-(4-chloro-3,5-dimethyl)phenyl-5-methyl-N4-(2-oxo-2,3-dihydro-1,3-benzoxazol-5-yl)-2,4-pyrimidinediamine] |  | < 500 |
| Cc1cnc(Nc2cccc(C)c2F)nc1Nc1ccc2oc(=O)[nH]c2c1 [Compound I-513, 5-(2-(2-fluoro-3-methylphenylamino)-5-methylpyrimidin-4-ylamino)benzo[d]oxazol-2(3H)-one] | < 500 |  |
| Cc1cnc(Nc2ccc(C(N)=O)c(N3CCC(C)CC3)c2)nc1Nc1ccc2oc(=O)[nH]c2c1 [Compound I-156, 4-[5-Methyl-4-(2-oxo-2,3-dihydro-benzooxazol-5-ylamino)-pyrimidin-2-ylamino]-2-(4-methyl-piperidin-1-yl)-benzamide] | < 500 |  |
| Cc1cnc(Nc2cnc(N3CCN4CCC3CC4)c(Cl)c2)nc1Nc1ccc2oc(=O)[nH]c2c1 [II-150, 5-(2-(6-(1,4-diazabicyclo[3.2.2]nonan-4-yl)-5-chloropyridin-3-ylamino)-5-methylpyrimidin-4-ylamino)benzo[d]oxazol-2(3H)-one] | < 500 |  |
| Cc1cnc(Nc2cccc(F)c2)nc1Nc1ccc2oc(=O)[nH]c2c1 [Compound I-368, N2-(3-fluoro)phenyl-5-methyl-N4-(2-oxo-2,3-dihydro-1,3-benzoxazol-5-yl)-2,4-pyrimidinediamine] |  | < 500 |
| CCN1CC2CN(c3ncc(Nc4ncc(C)c(Nc5ccc6oc(=O)[nH]c6c5)n4)cc3C(F)(F)F)CC2C1 (stereo not shown) [II-119, N2-[2-(3-ethyl-3,7-diazabicyclo[3.3.0]octan-7-yl)-3-trifluoromethylpyridin-5-yl]-5-methyl-N4-(2-oxo-2,3-dihydro-1,3-benzoxazol-5-yl)-2,4-pyrimidinediamine] | < 500 |  |
| CCCNC(C)c1cc(Nc2ncc(C)c(Nc3ccc4oc(=O)[nH]c4c3)n2)cc(OC)c1 (stereo not shown) [Compound I-232, 5-(2-(3-methoxy-5-(1-(propylamino)ethyl)phenylamino)-5-methylpyrimidin-4-ylamino)benzo[d]oxazol-2(3H)-one] | < 500 |  |
| Cc1cnc(Nc2ccc3c(c2)[nH]c(=O)n3C)nc1Nc1ccc2oc(=O)[nH]c2c1 [IV-28, 5-(5-methyl-2-(1-methyl-2-oxo-2,3-dihydro-1H-benzo[d]imidazol-5-ylamino)pyrimidin-4-ylamino)benzo[d]oxazol-2(3H)-one] | < 500 |  |
| Cc1cnc(Nc2ccc(-c3ccc(OCCCN(C)C)nc3)cc2)nc1Nc1ccc2oc(=O)[nH]c2c1 [Compound I-511, 5-(2-(4-(6-(3-(dimethylamino)propoxy)pyridin-3-yl)phenylamino)-5-methylpyrimidin-4-ylamino)benzo[d]oxazol-2(3H)-one trifluoroacetate salt] | < 500 |  |
| Cc1cnc(Nc2ccc(NS(C)(=O)=O)cc2)nc1Nc1ccc2oc(=O)[nH]c2c1 [Compound I-52] |  | < 500 |
| COc1cc(CF)cc(Nc2ncc(C)c(Nc3ccc4oc(=O)[nH]c4c3)n2)c1 [Compound I-274, 5-(2-(3-(fluoromethyl)-5-methoxyphenylamino)-5-methylpyrimidin-4-ylamino)benzo[d]oxazol-2(3H)-one] | < 500 |  |
| Cc1cnc(Nc2ccc3c(c2)CN(C(=O)OC(C)(C)C)C3)nc1Nc1ccc2oc(=O)[nH]c2c1 [III-3, N4-(benzo[d]oxazol-2(3H)-on-5-yl)-N2-(2-tert-butoxoxycarbonylisoindolin-5-yl)-5-methylpyrimidine-2,4-diamine] |  | < 500 |
| Cc1ccc(F)c(Nc2ncc(C)c(Nc3ccc4oc(=O)[nH]c4c3)n2)c1 [Compound I-515, 5-(2-(2-fluoro-5-methylphenylamino)-5-methylpyrimidin-4-ylamino)benzo[d]oxazol-2(3H)-one] | < 500 |  |
| Cc1cnc(Nc2cccc(OCC(=O)N(C)C)c2)nc1Nc1ccc2oc(=O)[nH]c2c1 [Compound I-326, N2-(3-dimethylaminocarbonylmethoxy)phenyl-5-methyl-N4-(2-oxo-2,3-dihydro-1,3-benzoxazol-5-yl)-2,4-pyrimidinediamine] |  | < 500 |

| SMILES | IC50 (Homo sapiens, T-cell) [nM] | IC50 [nM] |
| --- | --- | --- |
| Cc1cnc(Nc2ccc3c(c2)CN(CC2CC2)C3)nc1Nc1ccc2oc(=O)[nH]c2c1 [III-7, N4-(benzo[d]oxazol-2(3H)-on-5-yl)-N2-(2-cyclopropylmethylylisoindolin-5-yl)-5-methylpyrimidine-2,4-diamine] |  | < 500 |
| Cc1cnc(Nc2ccc(N3CCC(F)(F)CC3)cc2)nc1Nc1ccc2oc(=O)[nH]c2c1 [Compound I-279, N2-[4-(4,4-difluoropiperidinyl)]phenyl-5-methyl-N4-(2-oxo-2,3-dihydro-1,3-benzoxazol-5-yl)-2,4-pyrimidinediamine] |  | < 500 |
| CN1CCN(c2ccc(Nc3ncc(F)c(Nc4ccc5[nH]c(=O)[nH]c5c4)n3)cn2)CC1 [II-16, N4-(benzimidazolin-2-on-5-yl)-N2-[2-(4-methylpiperazin-1-yl)pyridin-5-yl]-5-fluoropyrimidine-2,4-diamine] |  | < 500 |
| Cc1cnc(Nc2cccc(C(=O)N3CCOCC3)c2)nc1Nc1ccc2oc(=O)[nH]c2c1 [Compound I-256, 5-(5-methyl-2-(3-(morpholine-4-carbonyl)phenylamino)pyrimidin-4-ylamino)benzo[d]oxazol-2(3H)-one] | < 500 |  |
| Cc1cnc(Nc2cccc(F)c2F)nc1Nc1ccc2oc(=O)[nH]c2c1 [Compound I-467, 5-[2-(2,3-Difluoro-phenylamino)-5-methyl-pyrimidin-4-ylamino]-3H-benzooxazol-2-one] | < 500 |  |
| COc1cc(Nc2ncc(C)c(Nc3cc(F)c4oc(=O)[nH]c4c3)n2)cc(C)c1F [Compound I-492, 7-fluoro-5-(2-(4-fluoro-3-methoxy-5-methylphenylamino)-5-methylpyrimidin-4-ylamino)benzo[d]oxazol-2(3H)-one] | < 500 |  |
| Cc1cnc(Nc2cc(Cl)cc(C(F)(F)F)c2)nc1Nc1ccc2oc(=O)[nH]c2c1 [Compound I-497, 5-[2-(3-Chloro-5-trifluoromethyl-phenylamino)-5-methyl-pyrimidin-4-ylamino]-3H-benzooxazol-2-one] | > 10000 |  |
| Cc1cnc(Nc2ccc(S(C)(=O)=O)cc2)nc1Nc1ccc2oc(=O)[nH]c2c1 [Compound I-17] |  | < 500 |
| NS(=O)(=O)c1ccc(Nc2ncc(F)c(Nc3ccc4[nH]c(=O)[nH]c4c3)n2)cc1 [Compound I-13, 5-(5-fluoro-2-(4-aminosulfonylphenylamino)pyrimidin-4-ylamino)-1H-benzo[d]imidazol-2(3H)-one] | 500 to 5000 |  |
| COc1cc(Nc2ncc(C)c(Nc3ccc4oc(=O)[nH]c4c3)n2)ccc1C(=O)N1CCCC1 [Compound I-268, 5-(2-(3-methoxy-4-(pyrrolidine-1-carbonyl)phenylamino)-5-methylpyrimidin-4-ylamino)benzo[d]oxazol-2(3H)-one] | < 500 |  |
| Cc1cnc(Nc2ccc(S(=O)(=O)C(F)(F)F)cc2)nc1Nc1ccc2oc(=O)[nH]c2c1 [Compound I-117, N4-(benzo[d]oxazol-2(3H)-on-5-yl)-N2-(4-trifluoromethylsulfonyl)phenyl-5-methylpyrimidine-2,4-diamine] |  | < 500 |
| Cc1cnc(Nc2cccnc2)nc1Nc1ccc2oc(=O)[nH]c2c1 [II-42, 5-[5-Methyl-2-(pyridin-3-ylamino)-pyrimidin-4-ylamino]-3H-benzooxazol-2-one] | 500 to 5000 |  |
| Cc1cnc(Nc2ccc(OCC(=O)OC(C)C)cc2)nc1Nc1ccc2oc(=O)[nH]c2c1 [Compound I-317, N2-[4-(isopropoxycarbonylmethoxy)]phenyl-5-methyl-N4-(2-oxo-2,3-dihydro-1,3-benzoxazol-5-yl)-2,4-pyrimidinediamine] |  | < 500 |
| CC(=O)c1ccc(Nc2ncc(C)c(Nc3ccc4oc(=O)[nH]c4c3)n2)cc1 [Compound I-129, 5-[2-(4-Acetyl-phenylamino)-5-methyl-pyrimidin-4-ylamino]-3H-benzooxazol-2-one] | < 500 |  |
| Cc1cnc(Nc2ccc(N3CCN(C(=O)OC(F)(F)F)CC3)nc2)nc1Nc1ccc2oc(=O)[nH]c2c1 [II-8, N4-(benzo[d]oxazol-2(3H)-on-5-yl)-N2-(6-(4-trifluoromethoxycarbonylpiperazin-1-yl)pyridin-3-yl)-5-methylpyrimidine-2,4-diamine] | < 500 |  |
| Cc1cnc(Nc2ccc(S(C)(=O)=O)cc2)nc1Nc1ccc2c(c1)oc(=O)n2C [Compound I-66, N2-((4-methylsulfonyl)phenyl)-N4-(3-methyl-2-oxo-2,3-dihydrobenzo[d]oxazol-6-yl)-5-methylpyrimidine-2,4-diamine] |  | < 500 |
| Cc1cnc(Nc2ccc(N[C@@H]3CCCNC3)nc2)nc1Nc1ccc2oc(=O)[nH]c2c1 [II-107, (R)-5-(5-methyl-2-(6-(piperidin-3-ylamino)pyridin-3-ylamino)pyrimidin-4-ylamino)benzo[d]oxazol-2(3H)-one] | < 500 |  |
